One experiment deals with SU-DHL-4 cells. The experiment in a line: Inhibitory effect on cell viability in SU-DHL-4 cell line (Test Example 1). In kind it is cell-based, human. The following applies: Homo sapiens; SU-DHL-4 cells, 72 hours, Cell Counting Kit-8; concentration showing 90% inhibition of cell viability; read-out: SU-DHL-4 Cell Viability Inhibition Rate IC90. In short, it runs like this: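 SU-DHL-4 cells were grown at 37° C. under 5% CO2 in RPMI1640 with 10 vol % heat-inactivated FBS plus penicillin/streptomycin, seeded and precultured for 18 to 25 hours, then exposed to test compound at 0.1 vol % DMSO for 72 hours. Viability was read with Cell Counting Kit-8 by absorbance at 450 nm.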
(Tetrazolium assays rely on reduction of a dye to a coloured formazan, in cell work by metabolically active cells.)
Broadly, the IC90 is the point of the concentration-response curve where the effect stands at 90%. On to `CCC(=O)N1c2ccccc2[C@H](Nc2ccc(NC(=O)C3CN(C(=O)c4ccc(OCCN5CCN(C)C(=O)[C@H]5C)cc4)C3)cc2)C[C@@H]1C` [Compound 16a, 1-(4-(2-((R)-2,4-Dimethyl-3-oxopiperazin-1-yl)ethoxy)benzoyl)-N-(4-(((2S,4R)-2-methyl-1-propionyl-1,2,3,4-tetrahydroquinolin-4-yl)amino)phenyl)azetidine-3-carboxamide], for which the IC90 was 11.1 nM.

Take `CCC(=O)N1c2ccccc2[C@H](Nc2ccc(NC(=O)CNC(=O)NC3CCN(Cc4cc(O)cc(-c5c(C)noc5C)c4)CC3)cc2)C[C@@H]1C` [Compound 17k, 2-(3-(1-(3-(3,5-Dimethylisoxazol-4-yl)-5-hydroxybenzyl)piperidin-4-yl)ureido)-N-(4-(((2S,4R)-2-methyl-1-propionyl-1,2,3,4-tetrahydroquinolin-4-yl)amino)phenyl)acetamide]: the IC90 is 43.7 nM.

Take `CCC(=O)N1c2ccccc2[C@H](Nc2ccc(-c3cnn(CCNC(=O)C4CCN(Cc5cc(O)cc(-c6c(C)noc6C)c5)CC4)c3)cc2)C[C@@H]1C` [Compound 17i, 1-(3-(3,5-Dimethylisoxazol-4-yl)-5-hydroxybenzyl)-N-(2-(4-(4-(((2S,4R)-2-methyl-1-propionyl-1,2,3,4-tetrahydroquinolin-4-yl)amino)phenyl)-1H-pyrazol-1-yl)ethyl)piperidine-4-carboxamide]: the IC90 stood at 1.45 nM.

`CCC(=O)N1c2ccccc2[C@H](Nc2ccc(-c3nnc(CNC(=O)c4ccc(OCCN5CCN(C)C(=O)[C@H]5C)cc4)o3)cc2)C[C@@H]1C` [Compound 16b, 4-(2-((R)-2,4-Dimethyl-3-oxopiperazin-1-yl)ethoxy)-N-((5-(4-(((2S,4R)-2-methyl-1-propionyl-1,2,3,4-tetrahydroquinolin-4-yl)amino)phenyl)-1,3,4-oxadiazol-2-yl)methyl)benzamide]: the IC90 was 2.05 nM.

The same experiment, now with this note: SU-DHL-4 cells, 72 hours, Cell Counting Kit-8; concentration showing 90% inhibition of cell viability; read-out: SU-DHL-4 Cell Viability Inhibition Rate IC90.
Turning to `CCC(=O)N1c2ccccc2[C@H](Nc2ccc(CCC(=O)NCC3(NC4CCC(N[C@@H]5C[C@H](C)N(C(=O)CC)c6ccccc65)CC4)COC3)cc2)C[C@@H]1C` (stereo partly drawn) [Compound 7h], the IC90 was determined as 5.47 nM.

Turning to `CCNC(=O)C[C@@H]1N=C(c2ccc(C(=O)NCCCNC(=O)c3ccc(N[C@@H]4C[C@H](C)N(C(=O)CC)c5ccccc54)cc3)cc2)c2c(sc(C)c2C)-n2c(C)nnc21` [Compound 13e, 4-((S)-6-(2-(Ethylamino)-2-oxoethyl)-2,3,9-trimethyl-6H-thieno[3,2-f][1,2,4]triazolo[4,3-a][1,4]diazepin-4-yl)-N-(3-(4-(((2S,4R)-2-methyl-1-propionyl-1,2,3,4-tetrahydroquinolin-4-yl)amino)benzamide)propyl)benzamide], the IC90 was 3.33 nM.

Take `CCC(=O)N1c2ccccc2[C@H](Nc2ccc(C(=O)N[C@H]3C[C@H](NC(=O)c4ccc(N[C@@H]5C[C@H](C)N(C(=O)CC)c6ccccc65)cc4)C3)cc2)C[C@@H]1C` [Compound 1j, N,N′-[(1r,3r)-Cyclobutane-1,3-diyl]bis(4-{[(2S,4R)-2-methyl-1-propionyl-1,2,3,4-tetrahydroquinolin-4-yl]amino}benzamide)]: the IC90 stood at 33.1 nM.

Take `CCC(=O)N1c2ccccc2[C@H](Nc2ccc(NC(=O)NCC(=O)NC3CCC(N[C@@H]4C[C@H](C)N(C(=O)CC)c5ccccc54)CC3)cc2)C[C@@H]1C` (relative stereo) [Compound 9c, N-((1R,4R)-4-(((2S*,4R*)-2-Methyl-1-propionyl-1,2,3,4-tetrahydroquinolin-4-yl)amino)cyclohexyl)-2-(3-(4-(((2S,4R)-2-methyl-1-propionyl-1,2,3,4-tetrahydroquinolin-4-yl)amino)phenyl)ureido)acetamide]: the IC90 came to 12.4 nM.

As to `CCC(=O)N1c2ccccc2[C@H](Nc2ccc(-c3cnn(C4CCN(C(=O)C5CCC(N[C@@H]6C[C@H](C)N(C(=O)CC)c7ccccc76)CC5)CC4)c3)cc2)C[C@@H]1C` (relative stereo) [Compound 8d, 1-((2S*,4R*)-2-Methyl-4-(((1r,4R)-4-(4-(4-(4-(((2S,4R)-2-methyl-1-propionyl-1,2,3,4-tetrahydroquinolin-4-yl)amino)phenyl)-1H-pyrazol-1-yl)piperidine-1-carbonyl)cyclohexyl)amino)-3,4-dihydroquinolin-1(2H)-yl)propan-1-one], the IC90 was 0.14 nM.

As to `CCC(=O)N1c2ccccc2[C@H](Nc2ccc(C(=O)NCCCNC(=O)c3ccc(C4=NCc5nnc(C)n5-c5sc(C)c(C)c54)cc3)cc2)C[C@@H]1C` (relative stereo) [Compound 1f, 4-{[(2S*,4R*)-2-Methyl-1-propionyl-1,2,3,4-tetrahydroquinolin-4-yl]amino}-N-{3-[4-(2,3,9-trimethyl-6H-thieno[3,2-f][1,2,4]triazolo[4,3-a][1,4]diazepin-4-yl)benzamide]propyl}benzamide], the IC90 was found to be 4.78 nM.

Regarding `CCC(=O)N1c2ccccc2[C@H](Nc2ccc(-c3cn4c(n3)CN(C(=O)C3CCC(N[C@@H]5C[C@H](C)N(C(=O)CC)c6ccccc65)CC3)CC4)cc2)C[C@@H]1C` (relative stereo) [Compound 7b, 1-((2S*,4R*)-2-Methyl-4-(((1R,4r)-4-(2-(4-(((2S,4R)-2-methyl-1-propionyl-1,2,3,4-tetrahydroquinolin-4-yl)amino)phenyl)-5,6,7,8-tetrahydroimidazo[1,2-a]pyrazine-7-carbonyl)cyclohexyl)amino)-3,4-dihydroquinolin-1(2H)-yl)propan-1-one], the IC90 was determined as 1.51 nM.

As to `CCC(=O)N1c2ccccc2[C@H](Nc2ccc(NC(=O)CNC(=S)OC3CCC(N[C@@H]4C[C@H](C)N(C(=O)CC)c5ccccc54)CC3)cc2)C[C@@H]1C` (relative stereo) [Compound 7d, 0-((1R,4R)-4-(((2S*,4R*)-2-Methyl-1-propionyl-1,2,3,4-tetrahydroquinolin-4-yl)amino)cyclohexyl)(2-((4-(((2S,4R)-2-methyl-1-propionyl-1,2,3,4-tetrahydroquinolin-4-yl)amino)phenyl)amino)-2-oxoethyl)carbamothioate], the IC90 was 25.9 nM.

The subject of the next experiment is MYC mRNA expression in SU-DHL-4 cells. Description: Suppressive effect on MYC mRNA expression (Test Example 2). Format: cell-based, human. The following applies: Homo sapiens, test compound 100 nmol/L, 6 hours, qRT-PCR corrected by ACTB, GAPDH, HPRT1, read-out: Suppression Rate of MYC mRNA Expression (%). As for the experimental part:
The cells were passaged twice a week at a volume of 20-40 mL so as to maintain a cell concentration of 1×10^6 cells/mL or less. The cultured SU-DHL-4 cells were seeded at 6×10^5 cells/well in a transparent 6-well plate (Code No. 140675, Thermo Fisher Scientific). After seeding, the cells were precultured at 37° C. in a carbon dioxide gas incubator for 18 to 25 hours. […] At this time, the final concentration of DMSO was adjusted to be 0.1 vol %. After adding the test compound, the cells were cultured at 37° C. in a carbon dioxide gas incubator for 6 hours. Then, the cells were collected by centrifugation and used for extraction of mRNA. mRNA extraction from cells was performed using Maxwell® 16 LEV simplyRNA Purification Kits (Code No. AS1270, Promega). The mRNA recovery protocol was performed according to the manufacturer's recommended protocol attached to the kit. […] The cDNA conversion was performed, according to the manufacturer's recommended protocol attached to the kit, in 0.020 mL of the reaction solution, and GeneAmp® PCR System 9700 (Applied Biosystems) was used. The cDNA-converted sample was diluted 10-fold by adding 0.180 mL of RNase Free Water (Code No. 10977-023, Thermo Fisher Scientific) and used for quantitative real-time polymerase chain reaction (qRT-PCR). For the calibration curve of qRT-PCR, 0.08 mL of RNase Free Water was added to a cDNA sample using DMSO as a test compound for 5-fold dilution. Further, two 5-fold dilutions were prepared stepwise, and these three samples were used as the calibration curve samples. The following reagents were used for qRT-PCR: TaqMan Gene Expression Assays, Inventoried (Primer probe: Code No. 4331182, Thermo Fisher Scientific, Assay ID: (i) MYC: Hs00153408_m1, (ii) ACTB: Hs01060665_g1, (iii) GAPDH: Hs04420697_g1, (iv) HPRT1: […] Universal PCR Master Mix, no AmpEraseR UNG (Master Mix: Code No. 4367846, Thermo Fisher Scientific). Primer probe (0.001 mL), Master Mix (0.010 mL), water (0.004 mL) and the diluted cDNA sample (0.005 mL) were mixed, and qRT-PCR analysis was performed. For qRT-PCR analysis, QuantStudio 7 Flex (Thermo Fisher Scientific) or 7500 Fast Real-Time PCR (Applied Biosystems) was used to measure in Fast mode and analyze. […] Corrected MYC expression=A/B • A: MYC expression level • B: Geometric mean of expression levels of ACTB, GAPDH and HPRT1 Using the corrected values, the suppression rate of MYC expression for the wells to which the test compound was not added was calculated by the following formula. […] Corrected MYC expression level in a well containing test compound • D: Corrected MYC expression level in a well to which test compound was not added
On the technique in general: In qPCR the cycle at which signal appears reflects the starting amount.
Take `CCC(=O)N1c2ccccc2[C@H](Nc2ccc(NC(=O)CNC(=O)C(F)=C3CCC(N[C@@H]4C[C@H](C)N(C(=O)CC)c5ccccc54)CC3)cc2)C[C@@H]1C` (relative stereo) [Compound 15k, 2-Fluoro-2-(4-(((2S*,4R*)-2-methyl-1-propionyl-1,2,3,4-tetrahydroquinolin-4-yl)amino)cyclohexylidene)-N-(2-((4-(((2S,4R)-2-methyl-1-propionyl-1,2,3,4-tetrahydroquinolin-4-yl)amino)phenyl)amino)-2-oxoethyl)acetamide]: the inhibition at 0.1 µM is 97.4%.

Turning to `CCC(=O)N1c2ccccc2[C@H](Nc2ccc(NC(=O)[C@H](C)NC(=O)c3ccc(N[C@@H]4C[C@H](C)N(C(=O)CC)c5ccccc54)cc3)cc2)C[C@@H]1C` (relative stereo) [Compound 2d, 4-{[(2S,4R)-2-Methyl-1-propionyl-1,2,3,4-tetrahydroquinolin-4-yl]amino}-N-{(S)-1-[(4-{[(2S*,4R*)-2-methyl-1-propionyl-1,2,3,4-tetrahydroquinolin-4-yl]amino}phenyl)amino]-1-oxopropan-2-yl}benzamide], the inhibition at 0.1 µM was 80%.

Staying with this experiment, now noted: test compound 100 nmol/L, 6 hours, qRT-PCR corrected by ACTB, GAPDH, HPRT1.
In the case of `CCC(=O)N1c2ccccc2[C@H](Nc2ccc(CCC(=O)NCC3(NC4CCC(N[C@@H]5C[C@H](C)N(C(=O)CC)c6ccccc65)CC4)COC3)cc2)C[C@@H]1C` (stereo partly drawn) [Compound 7h], the “Suppression Rate of MYC mRNA Expression (%)” value is recorded as 97.5%.

(Values after patent US20220378923A1, “BET DEGRADER” (KYOWA KIRIN CO., LTD., priority 2019, published 2022).)
